The target of series [1] is T1, CCKBRs in the motor cortex (Mus musculus, UniProt P56481).
T1 construct: from tissue; host or cells: motor cortex of living C57BL/6 mice
T1 sequence (P56481 1-453): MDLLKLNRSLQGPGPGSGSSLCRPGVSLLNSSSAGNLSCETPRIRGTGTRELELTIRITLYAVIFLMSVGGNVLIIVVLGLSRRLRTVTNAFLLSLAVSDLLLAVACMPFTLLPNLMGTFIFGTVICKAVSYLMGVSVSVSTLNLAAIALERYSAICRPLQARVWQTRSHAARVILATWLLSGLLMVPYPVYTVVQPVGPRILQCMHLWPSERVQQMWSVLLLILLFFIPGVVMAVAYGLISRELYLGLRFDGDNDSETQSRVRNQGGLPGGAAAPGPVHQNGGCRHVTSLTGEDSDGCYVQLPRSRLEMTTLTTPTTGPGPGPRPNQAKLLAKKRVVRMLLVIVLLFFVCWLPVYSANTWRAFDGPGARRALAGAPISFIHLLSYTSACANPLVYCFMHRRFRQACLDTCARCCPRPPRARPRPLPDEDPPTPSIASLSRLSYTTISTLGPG
Description: Single pellet reaching task with CCKBR antagonist injected into the motor cortex. Conditions: for success rate: 1 μl 20 μM into motor cortex via cannula before training. Type of series: in vivo, C57BL/6 mice. Here is the method: (§1) The task has two periods, shaping and training. […] Only attempts by the dominant hand are counted.
C57BL/6 mice are implanted a cannula in the motor cortex (coordinates: AP, 1.4 mm, ML, −/+1.6 mm, DV, 0.2 mm) contralateral to the dominant hand of the mice, followed by three days of recovery. Mice are grouped into antagonist and vehicle groups. L365,260 (CCKBR antagonist) (1 μl, 20 μM, Cat #2767, Bio-Techne, https://www.bio-techne.com/, USA) or vehicle (0.1% DMSO dissolved in ACSF) is injected into the motor cortex through the cannula with the flow rate of 100 nl/min pumped by a syringe pump (Hamilton, http://hamiltoninstrument.com, USA), before the mice are placed into the chamber for the single pellet reaching task training.

Series [2] deals with neurons in the motor cortex layer 2/3. The experiment in a line: Calcium imaging of layer 2/3 of the motor cortex during single pellet reaching task training. The class given is in vivo, C57BL/6 mice. Conditions: for activated population activity (peak activity minus baseline activity): C57BL/6 mice injected with L365,260 (0.4 mg/kg i.p.); for pairwise Hausdorff distance of trajectories / trial-to-trial population activity correlation (Pearson correlation coefficient): C57BL/6 mice injected with L365,260. Here is the method: as §1
The surface virus infusion process for the calcium imaging is performed as described previously with mild modification^5. A wide-tip glass pipette is prepared by a micropipette puller and then cut, polished, and flame-treated to make it even and smooth. Mice are […] injected with dexamethasone (0.2 mg/kg, s.c.) and carprofen (5 mg/kg, s.c.) to protect the brain from swelling and inflammation. Three hours later, mice are anesthetized with pentobarbital. The periosteum covered on the skull is removed, cleaned, and dried with 100% alcohol to prevent the skull and tissues from growing. A 3×3 mm^2 window above the motor cortex contralateral to the dominant hand is opened with a hand drill, and the bone debris is carefully removed with fine forceps. After that, the dura around the injection area is removed (open a dura hole of about 1 mm^2) to expose the pial tissue for virus infusion. The tip of the pipette tightly covered the brain surface by lowering 400-500 μm, and 0.6 μl virus is infused at the speed of 0.06 μl/min. A 3×3 cover glass (thickness, around 150 μm) is attached to the brain surface, and gentle pressure is applied to keep the cover glass at the level same as the skull. The edge of the cover glass is sealed with superglue. After the glue is totally hardened, the skin is stretched back and sutured.
2-3 weeks after cranial window implantation, the scalp over the skull is totally removed with surgical scissors. […] The cover glass surface is gently cleaned with Ringer's solution and lens paper, and the regrowth of periosteum on the skull is removed with fine forceps. Before baseplate implantation, the skull is dried with 100% alcohol, covered with Metbondglue, and a thick layer of dental acrylic except for the cover glass for observation.
The LED is turned on and the focal distance of the electrowetting lens is adjusted to 0 on the software. The position of the miniscope is adjusted until the brain tissue is observed in the data acquisition system. Dental acrylic is used to fix the baseplate to the acrylic cap covering the skull around the window. Once the dental acrylic has hardened, the miniscope is removed, and a metal cap is attached to the baseplate to protect the cover glass window.
After the implantation of the baseplate, a miniscope model is attached to the baseplate, and the mouse is placed in the chamber to acclimate to the weight of the miniscope for 20 minutes for 3 days. The LED laser and focal plate are slightly adjusted until the cells with fluorescent protruded from the background. A web camera is also connected to the data acquisition software and recorded the behavior movement of the animal simultaneously. An imaging field of about 1.0×1.0 mm^2 (resolution: 608×608 pixels) video at approximately 10 min long is recorded. To clearly figure out the role of CCK played in the neuronal plasticity of the motor cortex from CCK^−/− mice, C57BL/6 mice as well as C57BL/6 mice that intraperitoneal injection of CCKBR antagonist, L365,260 (0.4 mg/kg, Cat #2767, Bio-Techne, https://www.bio-techne.com, USA). Raw AVI videos are firstly spatially down-sample by two folds to reduce the size of the videos by Fiji (Image J, https://imagej.net/imagej-wiki-static/Fiji/Downloads, USA). Then a MATLAB algorithm, NoRMCorre, is applied for piecewise rigid motion correction before data analysis. The calcium signals are extracted with the MATLAB code of Constrained Nonnegative Matrix Factorization for microEndoscopic (CNMF-E) (code availability: https://github.com/zhoupc/CNMF_E) 6. The scaled fluorescent calcium signal overtime is extracted as C_raw. The raw data is then deconvolved. […] Timestamps from both the behavior videos and the calcium imaging videos are aligned to find out the time window when the mouse perform the reaching task. […]

For series [3], the system named is motor cortex brain slices from the CCK^−/− mice. Description: Brain slice electrophysiology, fEPSP/LTP after HFS in motor cortex slices. The class given is cell-based. The note with it: CCK4 500 nM, % of baseline. Here is the method:
The slice electrophysiology experiment is carried out following the methods reported previously^9. In the experiments, 6-8 weeks old C57BL/6 or CCK^−/− mice are anesthetized with isoflurane in a small chamber. The mouse head is cut, and the brain is rapidly removed and put into an oxygenated (95% O2-5% CO2) artificial cerebral spinal fluid (ACSF) cold bath containing 26 mM of NaHCO3, 2 mM of CaCl2), 1.25 mM of KH2PO4, 1.25 mM of MgSO4, 124 mM of NaCl, 3 mM of KCl and 10 mM of glucose, pH 7.35-7.45. The brain is sectioned from the middle line into two hemispheres. The portions with the brain areas of the motor cortex are trimmed and glued on the ice-cold stage of a vibrating tissue slicer (VT1000S, Leica, https://www.gmi-inc.com/product/leica-vt1000s-microtome, Germany). Coronal sections of slices containing the motor cortex (300 μm thick) are trimmed and gently transferred into an ACSF containing chamber, which is put in a water bath at 28° C. and oxygen blowing continuously. […]
After recovery, the motor cortex slice is covered by the recording electrodes. […] The electrophysiological data are extracted and analyzed with offline software, Mobius software. For quantification of the LTP data, the initial amplitudes of fEPSPs are normalized and expressed as percentage changes over the averaged baseline activity. […]

In series [4] the test system is CCK^−/− mice. The experiment in a line: Rescue of motor learning ability of CCK^−/− mice with CCK4, single pellet reaching task. The class given is in vivo. The note with it: for success rate: CCK4 0.45 mg/kg i.p. every day before training; for miss rate: CCK4 0.45 mg/kg i.p.
Description: as §1
CCK4, a tetrapeptide derived from the peptide of CCK is selected as a potential drug to rescue the motor learning defect caused by the lack of CCK, because CCK4 remains the function to activate the CCK receptor but has a much smaller molecule than CCK8s or CCK58, making it transmit through the brain-blood barrier easily and smoothly^10-11. Therefore, intraperitoneal injection of the CCK4 is a simple and easily available way to rescue CCK lack caused motor learning defects. After shaping, CCK^−/− mice are injected intraperitoneally with CCK4 (0.45 mg/kg, Cat #ab141328, Abcam, https://securedrtest.abcam.com, UK) or vehicle before training every day.

Several values for one entry are separate records, joined by “and”; a condition that tells them apart may be missing. Identical values can stand only once.

For `Cc1cccc(NC(=O)N[C@@H]2N=C(c3ccccc3)c3ccccc3N(C)C2=O)c1` [L365,260], the success rate in series [1] (Day 3) was determined as 16.80±2.83%. For the same compound, the success rate in series [1] (Day 4) worked out at 18.16±3.12%. Further, the “success rate of pellet retrieval, change through the 6-day training period” value in series [1] (infused into motor cortex every day before training) was “not improved”. The “drop rate, change Day 1 vs. Day 5” value in series [1] (motor cortex injection) is recorded as “no significant changes”. Further, the miss rate in series [1] (motor cortex injection, Day 1) is reported as 27.34%±9.85%. Further, the “number of miss, change with learning” value in series [1] (motor cortex injection, Day 1 vs. Day 5) is “no significant decrease”. Besides, in series [1] (motor cortex injection, Day 5), the miss rate is listed as 24.75%±2.34% and the no-grasp rate was 34.69%±4.12%. Moreover, in series [2] (Day 1), the “activated population activity (peak activity minus baseline activity)” value is listed as 0.0218±0.0094, the “pairwise Hausdorff distance of trajectories” value came out at 0.7012±0.0594 cm and the “trial-to-trial population activity correlation (Pearson correlation coefficient)” value was found to be 0.12±0.07. For the same compound, in series [2] (Day 6), the “activated population activity (peak activity minus baseline activity)” value was determined as 0.0354±0.0080, the “pairwise Hausdorff distance of trajectories” value was 0.6712±0.0659 cm and the “trial-to-trial population activity correlation (Pearson correlation coefficient)” value worked out at 0.12±0.05.

As to Trp-Met-Asp-Phe-NH2 [CCK4], the “average normalized fEPSP amplitude” value in series [3] (after HFS (50-60 min)) is 118.89%±6.09%; in series [3] (before HFS (−10-0 min)), 100.28%±0.47%. Besides, the success rate in series [4] (Day 1) was 19.17%±3.03%; in series [4] (Day 5, 0.45 mg/kg) it was 30.58%±4.18% and 30.51%±4.18%; in series [4] (Day 6) it was 31.50%±4.43%. For the same compound, the miss rate in series [4] (Day 1) is on record as 25.47%±4.03%; in series [4] (Day 5) it was 13.13%±2.80. For the same compound, the brain-blood barrier passage result in series [4] (concluded from behavioural rescue after i.p. injection) was “could cross the brain-blood barrier”.

The record behind these values is patent US20250002555A1, “METHODS FOR THERAPY AND REHABILITATION OF MOVEMENT DISORDERS” (City University of Hong Kong, priority 2023, published 2025).
